Values quoted from earlier work as cited in US20210128727A1, “A pharmaceutical combination for use in the treatment of cancer” (Universitätsmedizin der Johannes Gutenberg-Universität Mainz, priority 2018, published 2021).

Molecular target: T1, TLR-9 (Mus musculus, UniProt Q9EQU3)
T1 construct: host or cells: mice (in vivo, endogenous protein)
T1 sequence (Q9EQU3 26-1032): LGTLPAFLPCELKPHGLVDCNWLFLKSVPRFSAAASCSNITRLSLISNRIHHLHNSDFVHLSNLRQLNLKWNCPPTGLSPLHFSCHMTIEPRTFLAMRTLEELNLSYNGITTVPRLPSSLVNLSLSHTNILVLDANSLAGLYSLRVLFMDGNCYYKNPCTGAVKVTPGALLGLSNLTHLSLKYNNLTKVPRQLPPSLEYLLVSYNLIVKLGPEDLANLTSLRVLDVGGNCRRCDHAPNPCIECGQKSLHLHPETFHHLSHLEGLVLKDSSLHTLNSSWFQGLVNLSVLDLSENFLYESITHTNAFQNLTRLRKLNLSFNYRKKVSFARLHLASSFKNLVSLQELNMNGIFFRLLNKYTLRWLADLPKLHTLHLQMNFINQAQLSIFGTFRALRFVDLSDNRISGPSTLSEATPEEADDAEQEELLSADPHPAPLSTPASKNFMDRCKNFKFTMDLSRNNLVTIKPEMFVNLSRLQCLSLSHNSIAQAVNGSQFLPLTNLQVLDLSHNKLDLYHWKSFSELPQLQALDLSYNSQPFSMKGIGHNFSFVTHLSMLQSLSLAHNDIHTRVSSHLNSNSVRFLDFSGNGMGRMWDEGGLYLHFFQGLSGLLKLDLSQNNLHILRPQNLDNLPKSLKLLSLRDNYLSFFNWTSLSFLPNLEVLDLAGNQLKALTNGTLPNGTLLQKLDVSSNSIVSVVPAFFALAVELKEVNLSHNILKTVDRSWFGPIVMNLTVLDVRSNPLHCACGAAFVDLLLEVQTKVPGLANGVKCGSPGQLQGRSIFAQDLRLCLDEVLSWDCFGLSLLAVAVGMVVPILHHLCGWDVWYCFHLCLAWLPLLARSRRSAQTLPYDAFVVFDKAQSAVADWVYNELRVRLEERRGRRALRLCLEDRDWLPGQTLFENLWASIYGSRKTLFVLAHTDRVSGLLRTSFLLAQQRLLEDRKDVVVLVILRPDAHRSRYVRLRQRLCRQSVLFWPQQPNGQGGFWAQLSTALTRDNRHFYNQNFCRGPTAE
Conditions: mice

5′-TCCATGACGTTCCTGATGCT-3′: CpG oligodeoxynucleotide TLR9 agonist produced at Metabion International AG (DNA, all phosphorothioate, methylation of C not given here; listed as Mus musculus)
reversal of regulatory T cell-mediated CD8 tolerance: efficiently reverse regulatory T cell-mediated CD8 tolerance
